Results on eight compounds are retold here after patent publication US10877026B2, “Blood brain barrier models and methods to generate and use the same” (Purdue Research Foundation, priority 2016, dated 2020).

One data set concerns direct contact coculture. Kind of data set: MTT cell viability assay. The class given is cell-based, human. Particulars: n=6. As for the experimental part:
Cell viability in the presence of various HEPES concentrations was inferred by the mitochondrial oxidation of 3-(4,5-dimethylthiazol-2-yl)-2,5-diphenyltetrazolium bromide (MTT) dye. The direct contact coculture was plated in a 96-well plate following the same methods as stated above. On Day 7 post hCMEC/D3 plating, media containing HEPES was removed and replaced with 190 μL, fresh media and 10 μL of 5 mg/mL MTT and incubated at 37° C. with 5% CO2 for 4 hours. MTT was then removed and replaced with 200 μL DMSO and left agitating at room temperature for 1 hour. Absorbance at 570 nm was determined using a plate reader. Cell viability was normalized to 10 mM HEPES control. Assays were performed with n=6.
For orientation: Formazan colour is commonly taken as a measure of viable cells.

A short description of data set [1]: in vitro. Particulars: human.
The subject of data set [2] is direct-contact triculture of astrocytes, pericytes and hCMEC/D3 cells.
The test system of data set [3] is co-culture of astrocytes and pericytes. Kind of data set: Mannitol permeability across mono- or co-cultures of astrocytes and pericytes. In kind it is in vitro ADME.
Data set [4] can be described thus: in vitro. The settings on record: human. As to the method: (§1) For human astrocyte monocultures, 4×10^4 cells were seeded onto Transwells® coated with 2 μg/cm^2 poly-L-lysine and grown for 9 days prior to permeability studies.
(§2) Before all permeability studies, cells were washed twice with PBS before equilibrating in HBSS for 20 minutes shortly before the study. After study initiation, 100 μL samples were taken at 15, 30, 45, 60, and 90 minute time points. 4 mL of scintillation cocktail was added for analysis by scintillation counting.
The source holds these as a separate data set.

A short description of data set [5]: Apparent permeability across human astrocyte monoculture. In kind it is in vitro ADME. The settings on record: human; astrocytes grown in monoculture. As for the experimental part: as §1
(§3) . Before all permeability studies, cells were washed twice with PBS before equilibrating in HBSS for 20 minutes shortly before the study. After study initiation, 100 μL samples were taken at 15, 30, 45, 60, and 90 minute time points. 4 mL of scintillation cocktail was added for analysis by scintillation counting.

Data set [6] concerns human astrocyte monolayers. The description is as above. In kind it is in vitro ADME. As for the experimental part:
as §1, §3

For data set [7], the system named is direct contact coculture of human astrocytes and hCMEC/D3 cells.
The next data set deals with hCMEC/D3 monoculture. Briefly: in vitro. As for the experimental part: as §1, §2
The target in the next data set is T1, Pgp (Homo sapiens, UniProt P08183).
T1 construct: endogenous in cells; host or cells: hCMEC/D3 monoculture, astrocyte-pericyte coculture and triculture
Briefly: Drug-interaction of elacridar and digoxin in BBB culture models. In kind it is cell-based. Particulars: triculture versus hCMEC/D3 monoculture or astrocyte-pericyte co-culture, FIG. 17.

For data set [8], the system named is direct-contact triculture of astrocytes, pericytes and hCMEC/D3 cells. Briefly: Permeability across direct-contact triculture BBB model. The settings on record: hCMEC/D3 monoculture as control, n=5, FIG. 9.
The test system of data set [9] is direct contact coculture of human astrocytes and hCMEC/D3 cells. Briefly: Apparent permeability across direct contact coculture on Transwell. The settings on record: for apparent permeability, reproducibility: different passage number.

Like-named read-outs stand apart in the source and are kept apart here.

T1 sequence (P08183 whole entry): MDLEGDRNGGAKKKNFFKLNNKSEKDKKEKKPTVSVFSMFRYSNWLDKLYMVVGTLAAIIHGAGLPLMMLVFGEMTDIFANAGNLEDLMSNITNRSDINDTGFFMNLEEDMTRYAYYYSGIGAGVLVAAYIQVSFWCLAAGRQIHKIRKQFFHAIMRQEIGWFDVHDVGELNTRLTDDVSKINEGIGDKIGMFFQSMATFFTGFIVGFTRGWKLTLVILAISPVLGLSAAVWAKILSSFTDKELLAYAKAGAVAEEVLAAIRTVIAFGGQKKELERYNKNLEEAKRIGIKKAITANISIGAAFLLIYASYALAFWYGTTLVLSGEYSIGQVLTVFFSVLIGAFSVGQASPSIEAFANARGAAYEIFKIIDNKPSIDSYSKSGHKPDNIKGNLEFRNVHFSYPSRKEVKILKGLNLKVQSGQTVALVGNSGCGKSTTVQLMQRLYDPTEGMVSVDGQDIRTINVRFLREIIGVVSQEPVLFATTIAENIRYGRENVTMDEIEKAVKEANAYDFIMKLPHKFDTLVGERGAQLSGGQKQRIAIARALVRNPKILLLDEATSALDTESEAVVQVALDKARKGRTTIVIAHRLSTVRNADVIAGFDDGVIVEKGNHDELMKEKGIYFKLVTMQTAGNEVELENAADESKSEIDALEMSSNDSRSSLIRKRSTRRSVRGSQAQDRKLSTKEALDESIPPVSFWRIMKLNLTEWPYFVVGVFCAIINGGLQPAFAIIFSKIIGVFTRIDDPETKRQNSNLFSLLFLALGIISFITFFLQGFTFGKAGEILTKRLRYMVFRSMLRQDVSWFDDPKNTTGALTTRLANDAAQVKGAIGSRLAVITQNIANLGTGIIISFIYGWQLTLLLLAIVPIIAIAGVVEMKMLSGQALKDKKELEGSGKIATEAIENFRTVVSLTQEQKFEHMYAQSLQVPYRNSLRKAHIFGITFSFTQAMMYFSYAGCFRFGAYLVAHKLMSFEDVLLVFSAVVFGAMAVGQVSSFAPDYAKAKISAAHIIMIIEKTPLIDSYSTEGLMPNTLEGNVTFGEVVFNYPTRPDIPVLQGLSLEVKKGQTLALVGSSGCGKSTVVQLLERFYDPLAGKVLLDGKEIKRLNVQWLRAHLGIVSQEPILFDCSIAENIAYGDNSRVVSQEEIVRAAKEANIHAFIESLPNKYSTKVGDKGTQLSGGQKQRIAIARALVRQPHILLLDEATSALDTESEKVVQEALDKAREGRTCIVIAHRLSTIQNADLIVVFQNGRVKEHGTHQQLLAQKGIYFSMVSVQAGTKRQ

Regarding `O=S(=O)(O)CCN1CCN(CCO)CC1` [HEPES, 4-(2-hydroxyethyl)-1-piperazineethanesulfonic acid], the “change in cell viability (MTT)” value in the data set with direct contact coculture (25 mM HEPES in comparison to 10 mM HEPES control) is −8.2±2.0%; in the data set on direct contact coculture (50 mM HEPES compared to 10 mM HEPES control), −28.4±2.6%.
The term Papp A→B denotes how fast a substance crosses the layer from the apical side. With `OC[C@@H](O)[C@@H](O)[C@H](O)[C@H](O)CO` [Mannitol], the apical-to-basolateral permeability (Papp A→B) at 90 min, 0.25 μCi/mL stood at 15.2 ± 0.69 ×10⁻⁶ cm/s in “in vitro [1]” (Papp) and 15.2 ± 0.7 ×10⁻⁶ cm/s in “in vitro [1]” (apparent permeability). The “decrease in permeability, mono- versus tri-culture” value in data set [2] (human, 90 min, 0.25 μCi/mL) worked out at 1.5 fold. In addition, the effective permeability result in data set [3] (co-culture of astrocytes and pericytes versus astrocytes monoculture, FIG. 8B, n=6) is recorded as “lower in comparison to monoculture of astrocytes”. For the same compound, in [3] (co-culture versus astrocytes or pericytes alone, FIG. 8A), the apparent permeability result is “lower in the co-culture of astrocytes and pericytes”.
Turning to `CC(C)NCC(O)COc1cccc2ccccc12` (stereo not drawn) [Propranolol], the Papp A→B at 90 min, 0.25 μCi/mL in the data set “in vitro [1]” (apparent permeability) came to 16.1 ± 0.4 ×10⁻⁶ cm/s; in “in vitro [4]”, 19.1 ± 1.9 ×10⁻⁶ cm/s; in [5] it was 45.8 ± 4.1 ×10⁻⁶ cm/s. The “transcellular permeability across the BBB-triculture relative to L-histidine” value in [2] is recorded as “significantly slower than L-histidine”. Also, in data set [6], the “fold lower permeability in hCMEC/D3 and direct contact coculture than in astrocyte monoculture” value is around 3 fold.
As for `Cc1ncc(C[n+]2csc(CCO)c2C)c(N)n1` [Thiamine], in data set [2], the “transcellular permeability across the BBB-triculture relative to L-histidine” value is “significantly slower than L-histidine”.
Take `NC(N)=O` [Urea]: the Papp in data set [7] is on record as 2.43 ± 0.155 ×10^−5 cm/s. The apparent permeability in data set [7] is 2.43±0.15 ×10^−5 cm/s; in the data set with hCMEC/D3 monoculture, 2.96±0.11 ×10^−5 cm/s.
`COc1cc2c(cc1OC)CN(CCc1ccc(NC(=O)c3cccc4c(=O)c5cccc(OC)c5[nH]c34)cc1)CC2` [elacridar]: on Pgp, the “inhibition of Pgp function (digoxin)” value was “more difficult to inhibit Pgp function in the triculture”.
Turning to `CC(=O)O[C@H]1C(=O)[C@@]2(C)[C@H]([C@H](OC(=O)c3ccccc3)[C@]3(O)C[C@H](OC(=O)[C@H](O)[C@@H](NC(=O)c4ccccc4)c4ccccc4)C(C)=C1C3(C)C)[C@]1(OC(C)=O)CO[C@@H]1C[C@@H]2O` [paclitaxel], the “transcellular permeability across the BBB-triculture relative to L-histidine” value in data set [2] is “significantly slower than L-histidine”.
Consider Inulin, for which, in data set [8], the “decrease in permeability, mono- versus tri-culture” value was 8 fold. Moreover, the apparent permeability was 8.46±0.02 ×10^−6 cm/s in the data set with hCMEC/D3 monoculture (hCMEC/D3 monoculture, n=3) and 7.55±0.3 ×10^−6 cm/s in [9] (direct contact coculture, n=3). Further, the Papp in data set [9] (Table 4, values match the direct contact coculture) was 0.754 ± 0.030 ×10^−5 cm/s. In addition, the “apparent permeability, reproducibility” value in data set [9] (first additional independent experiment) was 7.51±0.01 ×10^−6 cm/s; in data set [9] (second additional independent experiment), 7.94±0.03 ×10^−6 cm/s.
